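Briefly, cells in 96-well plates were exposed to five compound concentrations for 48 h, and endpoints were estimated by linear interpolation. GI50 is the concentration that inhibits growth by half.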 Active and inactive are the calls of the source. Cut-off read from the data, not from the text of the source: active = GI50 up to about 1.1 µM and inactive = higher.
Assays:
Test in all cases: inhibition of tumour cell growth, NCI panel, 48 h
[1] = tested on: TK-10
[2] = tested on: NCI-H522
[3] = tested on: SF-268
[4] = tested on: U-251
[5] = tested on: SK-MEL-5
[6] = tested on: HCC 2998
[7] = tested on: OVCAR-5
[8] = tested on: SK-OV-3
[9] = tested on: OVCAR-3
[10] = tested on: IGROV-1
[11] = tested on: HOP-62
[12] = tested on: SW-620
[13] = tested on: HCT-116
[14] = tested on: EKVX
[15] = tested on: HT-29
[16] = tested on: COLO 205
[17] = tested on: SNB-75
[18] = tested on: DLD-1
[19] = tested on: DMS-273
[20] = tested on: SNB-19
[21] = tested on: MOLT-4
[22] = tested on: NCI-H23
[23] = tested on: SF-295
[24] = tested on: HCT-15
[25] = tested on: DMS-114
[26] = tested on: CCRF-CEM
[27] = tested on: Malme-3M
[28] = tested on: K562
[29] = tested on: KM12
[30] = tested on: KM-20L2
[31] = tested on: A498
[32] = tested on: SF-539
[33] = tested on: UACC-257
[34] = tested on: OVCAR-8
[35] = tested on: CAKI-1
[36] = tested on: SK-MEL-2
[37] = tested on: SNB-78
[38] = tested on: UACC-62
[39] = tested on: UO-31
[40] = tested on: NCI-H460
[41] = tested on: SN12C
[42] = tested on: A549
[43] = tested on: RPMI-8226
[44] = tested on: XF498
[45] = tested on: M19-MEL
[46] = tested on: M14
[47] = tested on: OVCAR-4
[48] = tested on: RXF 393
[49] = tested on: LXFL 529
[50] = tested on: LOX IMVI
[51] = tested on: HL-60
[52] = tested on: HOP-92
[53] = tested on: HOP-18
[54] = tested on: NCI-H226
[55] = tested on: 786-0
[56] = tested on: SR

Measured: GI50

CCOC(=O)c1[nH]c(COC(C)=O)c2c1CCCCCCCCCC2
> 100 µM: [24]
inactive: [1] > 100 µM | [2] > 100 µM | [3] > 100 µM | [4] > 100 µM | [5] > 100 µM | [6] > 100 µM | [7] > 100 µM | [8] > 100 µM | [9] > 100 µM | [10] > 100 µM | [11] > 100 µM | [12] > 100 µM | [13] > 100 µM | [14] > 100 µM | [15] > 100 µM | [16] > 100 µM | [17] > 100 µM | [18] > 100 µM | [19] > 100 µM | [20] > 100 µM | [21] > 100 µM | [22] > 100 µM | [23] > 100 µM | [25] > 100 µM | [26] > 100 µM | [27] > 100 µM | [28] > 100 µM | [29] > 100 µM | [30] > 100 µM | [31] > 100 µM | [32] > 100 µM | [33] > 100 µM | [34] > 100 µM | [35] > 100 µM | [36] > 100 µM | [37] > 100 µM | [38] > 100 µM | [39] > 100 µM | [40] > 100 µM | [41] > 100 µM | [42] > 100 µM | [43] > 100 µM | [44] > 100 µM | [45] > 100 µM | [46] > 100 µM | [47] > 100 µM | [48] > 100 µM | [49] > 100 µM | [50] > 100 µM | [51] > 100 µM | [52] > 100 µM | [53] > 100 µM | [54] > 100 µM | [55] > 100 µM | [56] > 100 µM

Source: ChEMBL document CHEMBL1201862, “PubChem BioAssay data set” (2004)
